This passage reports Ki results from patent US20250312499A1, “KISSPEPTIN RECEPTOR (KISS1R) TARGETED THERAPEUTICS AND USES THEREOF” (priority 2024, published 2025).

For orientation: pKi means the Ki on a negative log10 scale, so that one unit is a factor of ten.

The target of the test is human kisspeptin receptor (Homo sapiens (Human), UniProt Q969F8). In words: Human KISS1R binding assay (membrane competition binding). The following applies: 90 min at room temperature; competition with 0.2 nM [125I]-metastin (45-54); Flp-In T-Rex 293 kisspeptin membranes; metal complexes nonradioactive Ga, In, Lu; read-out: hKiSSR Binding Ki (90 min). Put shortly: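 Radioligand competition: 0.2 nM [125I]-metastin (45-54) displaced by test ligand (usually 0–10,000 nM) over 90 min at room temperature, pH 7.4 buffer with 0.1% BSA. Receptor source is crude membrane (5–10 μg) from tetracycline-induced Flp-In T-Rex 293 cells. Bound label filtered and counted; Ki from non-linear regression.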

pKi: −log10 of the molar value. Numbered stars: 1 amine (or outer) side, 2 acyl side, 3 side chain; on linkers, the order of the positions; unused ones are H or OH. Square brackets hold non-standard residues; d marks the D form. Peptide text beside a SMILES is read from it. * marks the point of attachment. DOTA = O=C(O)CN1CCN(CC(=O)O)CCN(CC(=O)*)CCN(CC(=O)O)CC1; Gly(N-(3-F-4-Me-benzyl)) = Cc1ccc(CNCC(=O)*)cc1F; Api(1-amidino) = N=C(N)N1CCC(N)(C(=O)O)CC1; X1 = O=C(CN1CCC(N[*:1])CC1)[*:2]; Lauroyl = CCCCCCCCCCCC(=O)*; Api = NC1(C(=O)O)CCNCC1; Ahx = NCCCCCC(=O)O; azaGly = NNC(=O)O

Sequence of human kisspeptin receptor (Q969F8 whole entry): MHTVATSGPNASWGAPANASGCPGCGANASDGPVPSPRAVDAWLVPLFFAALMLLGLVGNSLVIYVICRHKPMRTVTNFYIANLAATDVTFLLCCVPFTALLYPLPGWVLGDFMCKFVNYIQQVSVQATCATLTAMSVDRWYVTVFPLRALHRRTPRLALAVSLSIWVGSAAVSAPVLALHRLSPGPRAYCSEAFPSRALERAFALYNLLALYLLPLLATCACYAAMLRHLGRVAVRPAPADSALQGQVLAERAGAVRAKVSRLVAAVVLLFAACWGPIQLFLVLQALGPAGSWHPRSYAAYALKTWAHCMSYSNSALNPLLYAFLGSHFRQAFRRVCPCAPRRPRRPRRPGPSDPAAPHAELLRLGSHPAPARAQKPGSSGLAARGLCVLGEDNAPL

Take `Cc1ccc(CNCC(=O)N2CCC(NC(=O)[C@H](CC(C)C)NC(=O)NNC(=O)[C@H](Cc3ccccc3)NC(=O)CN3CCC(NC(=O)CN4CCN(CC(=O)O)CCN(CC(=O)O)CCN(CC(=O)O)CC4)CC3)(C(=O)N[C@@H](Cc3ccccc3)C(N)=O)CC2)cc1F` [Compound 245] ({DOTA}-[X1]F[azaGly]L[Api](Gly(N-(3-F-4-Me-benzyl)))F-NH2): the pKi is above 8.00.

In the case of `CCCCCCCCCCCC(=O)N[C@H](Cc1ccc(O)cc1)C(=O)N[C@@H](CCCCNC(=O)CN1CCN(CC(=O)O)CCN(CC(=O)O)CCN(CC(=O)O)CC1)C(=O)N[C@@H](CC(N)=O)C(=O)N[C@H](C(=O)N[C@@H](Cc1ccccc1)C(=O)NNC(=O)N[C@@H](CC(C)C)C(=O)NC1(C(=O)N[C@@H](Cc2c[nH]c3ccccc23)C(N)=O)CCN(C(=N)N)CC1)[C@@H](C)O` [Compound 329] (Lauroyl-[dY]K(DOTA)NTF[azaGly]L[Api(1-amidino)]W-NH2), the pKi was above 8.00.

Turning to `CSCC[C@H](NC(=O)c1ccc(CNC(=O)CN2CCN(CC(=O)O)CCN(CC(=O)O)CCN(CC(=O)O)CC2)cc1)C(=O)N[C@@H](Cc1ccccc1)C(=O)N[C@@H](CCCCNC(=O)CCCCC(=O)N[C@@H](Cc1ccccc1)C(=O)NNC(=O)N[C@@H](CC(C)C)C(=O)NC1(C(=O)N[C@@H](Cc2c[nH]c3ccccc23)C(N)=O)CCN(C(=O)CNCc2ccc(C)c(F)c2)CC1)C(=O)O` [Compound 203], the pKi is above 8.00.

For the molecule `Cc1ccc(CNCC(=O)N2CCC(NC(=O)[C@H](CC(C)C)NC(=O)CNC(=O)[C@H](Cc3ccccc3)NC(=O)CCCCCNC(=O)CN3CCN(CC(=O)O)CCN(CC(=O)O)CCN(CC(=O)O)CC3)(C(=O)N[C@@H](Cc3c[nH]c4ccccc34)C(N)=O)CC2)cc1F` [Compound 10] ({DOTA-Ahx}-FGL[Api](Gly(N-(3-F-4-Me-benzyl)))W-NH2), the pKi was above 8.00.
